US12077503B2, “Substituted cyclic amides and their use as herbicides” (FMC CORPORATION, priority 2015, dated 2024)

How the values were obtained:
Type in all cases: in vivo
[1] = test system: pigweed (Amaranthus retroflexus); test: Test A preemergence; settings: Amaranthus retroflexus, pre-emergence, 240 h, preemergence, 0 to 100 scale where 0 is no effect and 100 is complete control, read-out: Pigweed plant response rating
[2] = test system: Galium (catchweed bedstraw, Galium aparine); test: Test A postemergence; settings: Galium, post-emergence, 240 h, postemergence
Outline: (§1)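 Seeded soil received test chemicals as a preemergence directed spray, and seedlings at one to two leaves, 2–10 cm tall, received them postemergence, in a non-phytotoxic, surfactant-containing solvent mixture. Pots were held in a greenhouse for approximately 10 d, then rated for injury from 0, no effect, to 100, complete control.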

Kochia (Kochia scoparia) = test: Test A postemergence; settings: Bassia scoparia, post-emergence, 240 h, postemergence
Outline: as §1

[3] = test system: barnyardgrass (Echinochloa crus-galli); test: Test A postemergence; settings: Echinochloa crus-galli, post-emergence, 240 h, postemergence
Outline: as §1

[4] = test system: blackgrass (Alopecurus myosuroides); test: Test A postemergence; settings: Alopecurus myosuroides, post-emergence, 240 h, postemergence
Outline: as §1

corn (Zea mays) = test: Test A postemergence; settings: Zea mays, post-emergence, 240 h, postemergence
Outline: as §1

[5] = test system: giant foxtail (Setaria faberii); test: Test A postemergence; settings: Setaria faberi, post-emergence, 240 h, postemergence
Outline: as §1

[6] = test system: pigweed (Amaranthus retroflexus); test: Test A postemergence; settings: Amaranthus retroflexus, post-emergence, 240 h, postemergence
Outline: as §1

[7] = test system: ragweed (common ragweed, Ambrosia elatior); test: Test A postemergence; settings: Ambrosia artemisiifolia, post-emergence, 240 h, postemergence
Outline: as §1

[8] = test system: ryegrass, Italian (Italian ryegrass, Lolium multiflorum); test: Test A postemergence; settings: Lolium multiflorum, post-emergence, 240 h, postemergence
Outline: as §1

[9] = test system: wheat (Triticum aestivum); test: Test A postemergence; settings: Triticum aestivum, post-emergence, 240 h, postemergence
Outline: as §1

[10] = test system: barnyardgrass (Echinochloa crus-galli); test: Test B flooded paddy test; settings: Echinochloa crus-galli, 250 g ai/ha, Flood; 0 to 100 scale where 0 is no effect and 100 is complete control; read-out: Barnyardgrass plant response rating
Outline: (§2)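 2-leaf plants; pots flooded 3 cm over soil; cpd added to paddy water; depth held; greenhouse 13–15 d; visual rating vs controls, 0 = no effect, 100 = complete control.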

[11] = test system: ducksalad (Heteranthera limosa); test: Test B flooded paddy test; settings: Heteranthera limosa, 250 g ai/ha, Flood; 0 to 100 scale where 0 is no effect and 100 is complete control; read-out: Ducksalad plant response rating
Outline: as §2

rice (Oryra sativa) = test: Test B flooded paddy test; settings: Oryza sativa, 250 g ai/ha, Flood; 0 to 100 scale where 0 is no effect and 100 is complete control; read-out: Rice plant response rating
Outline: as §2

[12] = test system: sedge, umbrella (small-flower umbrella sedge, Cyperus difformis); test: Test B flooded paddy test; settings: Cyperus difformis, 250 g ai/ha, Flood; 0 to 100 scale where 0 is no effect and 100 is complete control; read-out: Sedge, Umbrella plant response rating
Outline: as §2

## CCc1cc([C@H]2CN(C)C(=O)[C@@H]2C(=O)Nc2cccc(F)c2F)cs1 [Compound 1157]
[1]; 125 g ai/ha, approx. 10 d
  pest or weed control at 125 g/ha: 30%
[1]; 500 g ai/ha
  pest or weed control at 500 g/ha: 60%
[2]; 125 g ai/ha, visual injury vs untreated controls after approx. 10 d, 0 = no effect, 100 = complete control, read-out: Galium plant response rating (0 to 100 scale)
  pest or weed control at 125 g/ha: 50%
[2]; 500 g ai/ha, 0 to 100 scale, 0 is no effect, 100 is complete control, read-out: Galium plant response rating
  pest or weed control at 500 g/ha: 60%
Kochia (Kochia scoparia); 125 g ai/ha, visual injury vs untreated controls after approx. 10 d, 0 = no effect, 100 = complete control, read-out: Kochia plant response rating (0 to 100 scale)
  pest or weed control at 125 g/ha: 0%
Kochia (Kochia scoparia); 500 g ai/ha, 0 to 100 scale, 0 is no effect, 100 is complete control, read-out: Kochia plant response rating
  pest or weed control at 500 g/ha: 50%
[3]; 125 g ai/ha, visual injury vs untreated controls after approx. 10 d, 0 = no effect, 100 = complete control, read-out: Barnyardgrass plant response rating (0 to 100 scale)
  pest or weed control at 125 g/ha: 90%
[3]; 500 g ai/ha, 0 to 100 scale, 0 is no effect, 100 is complete control, read-out: Barnyardgrass plant response rating
  pest or weed control at 500 g/ha: 90%
[4]; 125 g ai/ha, visual injury vs untreated controls after approx. 10 d, 0 = no effect, 100 = complete control, read-out: Blackgrass plant response rating (0 to 100 scale)
  pest or weed control at 125 g/ha: 0%
[4]; 500 g ai/ha, 0 to 100 scale, 0 is no effect, 100 is complete control, read-out: Blackgrass plant response rating
  pest or weed control at 500 g/ha: 50%
Corn (Zea mays); 125 g ai/ha, visual injury vs untreated controls after approx. 10 d, 0 = no effect, 100 = complete control, read-out: Corn plant response rating (0 to 100 scale)
  plant injury at 125 g/ha: 40%
Corn (Zea mays); 500 g ai/ha, 0 to 100 scale, 0 is no effect, 100 is complete control, read-out: Corn plant response rating
  plant injury at 500 g/ha: 50%
[5]; 125 g ai/ha, visual injury vs untreated controls after approx. 10 d, 0 = no effect, 100 = complete control, read-out: Foxtail, Giant plant response rating (0 to 100 scale)
  pest or weed control at 125 g/ha: 90%
[5]; 500 g ai/ha, 0 to 100 scale, 0 is no effect, 100 is complete control, read-out: Foxtail, Giant plant response rating
  pest or weed control at 500 g/ha: 90%
[6]; 125 g ai/ha, visual injury vs untreated controls after approx. 10 d, 0 = no effect, 100 = complete control, read-out: Pigweed plant response rating (0 to 100 scale)
  pest or weed control at 125 g/ha: 0%
[6]; 500 g ai/ha, 0 to 100 scale, 0 is no effect, 100 is complete control, read-out: Pigweed plant response rating
  pest or weed control at 500 g/ha: 0%
[7]; 125 g ai/ha, visual injury vs untreated controls after approx. 10 d, 0 = no effect, 100 = complete control, read-out: Ragweed plant response rating (0 to 100 scale)
  pest or weed control at 125 g/ha: 0%
[7]; 500 g ai/ha, 0 to 100 scale, 0 is no effect, 100 is complete control, read-out: Ragweed plant response rating
  pest or weed control at 500 g/ha: 50%
[8]; 125 g ai/ha, visual injury vs untreated controls after approx. 10 d, 0 = no effect, 100 = complete control, read-out: Ryegrass, Italian plant response rating (0 to 100 scale)
  pest or weed control at 125 g/ha: 0%
[8]; 500 g ai/ha, 0 to 100 scale, 0 is no effect, 100 is complete control, read-out: Ryegrass, Italian plant response rating
  pest or weed control at 500 g/ha: 40%
[9]; 125 g ai/ha, visual injury vs untreated controls after approx. 10 d, 0 = no effect, 100 = complete control, read-out: Wheat plant response rating (0 to 100 scale)
  plant injury at 125 g/ha: 30%
[9]; 500 g ai/ha, 0 to 100 scale, 0 is no effect, 100 is complete control, read-out: Wheat plant response rating
  plant injury at 500 g/ha: 70%
[10]
  pest or weed control at 250 g/ha: 55%
[11]
  pest or weed control at 250 g/ha: 98%
Rice (Oryra sativa)
  pest or weed control at 250 g/ha: 0%
[12]
  pest or weed control at 250 g/ha: 0%
